What was measured:
recombinant ATX [1] = target: T1, recombinant ATX (Homo sapiens, UniProt Q13822); assay: TOOS activity assay, LPC hydrolysis by recombinant ATX; type: biochemical; conditions: substrate Km, TOOS
T1 construct: purchased SinoBiological Inc (main data); R&D (additional Km values)
Protocol: ATX/LysoPLD activity was assessed based on the amount of choline released from LPC with the use of TOOS (N-ethyl-N-(2-hydoroxy-3-sulfopropyl)-3-methylaniline) reagent. In this assay ATX-mediated LPC-liberated choline is oxidised by choline oxidase to betaine and hydrogen peroxide (H2O2). The latter in the presence of horseradish peroxidase reacts with TOOS and 4-aminoantipyrene (4-AAP) to form a pink quinoneimine dye measured at 555 nm.
Diluted plasma samples (100 fold dilution; final EDTA concentration 0.5 mM) or recombinant ATX protein (2 nM) were incubated with LPC in the presence of 100 mmol/l Tris–HCl/pH 9.0, 500 mmol/l NaCl, 5 mmol/l MgCl2, 5 mmol/l CaCl2, 60 μM CoCl2 and 0.05% Triton X-100 for 3 h at 37°C at a final volume of 100 μl. It should be noted that EDTA was used not only as an anticoagulant but also as an inhibitor of ATX activity ex vivo [46], in order to suppress artificial LPA production during blood withdrawal and plasma preparation; this is because the same samples were used in phospholipid measurements.
The liberated choline was detected by adding 100 μl of a color mix containing 4-AAP and TOOS (0.3 mM), horseradish peroxidase (5.3 UnitmL^−1) and choline oxidase (2 UnitmL^−1). Absorbance was measured at 555 nm and data were analyzed using the statistical software package Prism 4.0 (Graphpad Software Inc, La Jolla, CA, USA). For each sample and control the absorbance was plotted against time and the slope (da/min) for the linear (steady-state) portion of each reaction profile was calculated. Absorbance units were converted to nmol of choline/min/ml by comparison with a choline standard curve or by use of the extinction coefficient for the quinoneimine dye according to the following equation: [drawing 1] Where Vt* is the total volume of reaction in ml (0.2 ml); Vs* is the volume of sample in ml; e is the millimolar extinction coefficient of quinoneimine dye under the assay conditions (e = e = […]); and 1/2: Factor based on the fact that 1 mol of hydrogen peroxide produces 1/2 mol of quinoneimine dye.
(§1) The biochemistry of lyso-PLD was assessed by following the kinetics data using a wide panel of different ATX substrates [FS-3, different LPC species (14:0, 16:0, 18:0, 18:1)], three different recombinant ATX proteins (R&D, Sino-Biological and Echelon) and three different ATX activity assays (FS-3, TOOS, Amplex Red). The ATX activity was measured at different substrate concentrations (typically from 1-1000 μM) in order to examine whether ATX follows Michaelis-Menten kinetics. The Michaelis constant (Km) was obtained by fitting the substrate dependence of V (ATX activity) to a rectangular hyperbola using the non-linear regression analysis of the statistical software package Prism 4.0 (GraphPad Software, Inc.). Km and Vmax were evaluated from the rectangular hyperbola curve with the use of GraphPad software.
(§2) For in vitro inhibition measurements, BrP-LPA was dissolved in water as a stock solution (4 mM) and appropriate dilutions were made in water. The inhibition of ATX by BrP-LPA was measured employing 2 nM recombinant ATX, 50 μΜ LPC (14:0, 16:0, 18:0) and 0.01 to 100 μmol/L of BrP-LPA (final concentrations). The in vitro inhibition of ATX by BrP-LPA was evaluated with three different assays (FS-3, Amplex Red, and TOOS). […] BrP-LPA was also tested for its ability to inhibit mouse plasma ATX activity. Diluted mouse plasma was used as the source of ATX and the analysis of inhibition was made with TOOS as the in vitro inhibition assay.
The inhibition model (competitive, noncompetitive, or mixed type inhibition) was evaluated by graphical analysis with Lineweaver–Burk double reciprocal plots (1/[velocity] versus 1/[substrate]) and Cornish-Bowden plot ([substrate]/[velocity] versus [Inhibitor]). These plots were generated by the measurement of ATX activity in the presence of different BrP-LPA concentrations (0–10 μΜ) and increased amounts of 16:0 LPC (100, 200, 400 μΜ). […]

recombinant ATX [2] = target: T1, recombinant ATX; assay: Amplex Red activity assay, LPC hydrolysis by recombinant ATX (Echelon); type: biochemical; conditions: substrate Km, recombinant ATX from Echelon
Protocol: BrP-LPA inhibition was also tested with the more sensitive reagent Amplex Red based on the Amplex™ Red PLD assay kit (Molecular Probes, Interchim, Montluçon, France) originally designed for the measurement of the PLD activity, [49]. All reactions were performed with purified ATX (2 nM) from Echelon at 37°C. The ability of ATX to cleave LPC was detected using a coupled assay that monitors the release of choline using Amplex Red (10 μΜ), choline oxidase (0.2 Units/ml) and horseradish peroxidise (2 Units/ml) The rate of fluorescence increase was measured in a fluorescence plate reader (Tecan Infinite 200 microplate reader from Tecan Trading AG, Switzerland) for up to 80 minutes; the fluorescence increase was linear during that time-frame for all cases. Rates were normalized to control reactions that contained all reaction components except for the test compound.
as §1, §2
The inhibition model (competitive, noncompetitive, or mixed type inhibition) was evaluated by graphical analysis with Lineweaver–Burk double reciprocal plots (1/[velocity] versus 1/[substrate]) and Cornish-Bowden plot ([substrate]/[velocity] versus [Inhibitor]). These plots were generated by the measurement of ATX activity in the presence of different BrP-LPA concentrations (0–10 μΜ) and increased amounts of 16:0 LPC (100, 200, 400 μΜ). The inhibition constants (Ki) and IC50 values were determined using the mean values obtained from two independent experiments. The relative remaining ATX activity or LPA levels in the presence of the BrP-LPA was expressed as a percentage of the corresponding control value (ATX activity, LPA levels without inhibitor). The IC50 value was determined graphically by plotting the log concentration of BrP-LPA versus relative remaining ATX activity or LPA levels of each test sample using the sigmoid dose–response fitting method (Prism® software). The IC50 (concentration of BrP-LPA sufficient to inhibit ATX activity or diminish LPA levels by 50%) was calculated by the equation f = y0+a/(1+exp(-(x-x0)/b)) given by SigmaPlot 11.0 (Systat Software, Inc., San Jose, CA, USA).
Ki was calculated using the equation of Cheng and Prusoff: Ki = IC50/1+[S]/Km, where Ki is the binding affinity of the inhibitor, IC50 is the functional strength of the inhibitor, [S] is substrate concentration and Km is the concentration of substrate at which enzyme activity is half maximal. Whereas the IC50 value for a compound may vary between experiments depending on experimental conditions, Ki is an absolute value. […]

[3] = test system: K/BxN serum transfer RA model; set-up: method as in PMID 18491295, PMID 22354754; conditions: cited from earlier work
[4] = test system: COX-2 expression from SFs; set-up: method as in PMID 18802115; conditions: cited from earlier work
[5] = set-up: method as in PMID 22354754; conditions: cited from earlier work
[6] = recombinant ATX from Sinobiological Inc

| Km (recombinant ATX [1]; [6]) | SMILES | Km (recombinant ATX [1]; recombinant ATX from R&D) | Km (recombinant ATX [2]) | also measured |
| --- | --- | --- | --- | --- |
| 55 ± 10 µM | CCCCCCCC/C=C\CCCCCCCC(=O)OC[C@@H](O)COP(=O)([O-])OCC[N+](C)(C)C [18:1 LPC, reference compound] |  |  |  |
|  | Cc1noc(-c2ccc(CSCCC(=O)O)cc2)c1NC(=O)OC(C)c1ccccc1Cl (stereo not shown) [ki16425] |  |  | arthritis severity [3]: reduction of arthritis severity; LPA-mediated COX-2 expression [4]: inhibit LPA-mediated COX-2 expression; half-life [5]: very short half-life |
| 60 ± 11 µM | CCCCCCCCCCCCCCCC(=O)OC[C@@H](O)COP(=O)([O-])OCC[N+](C)(C)C [16:0 LPC, reference compound] | 90 µM |  |  |
|  | CCCCCCCCCCCCCC(=O)OC[C@@H](O)COP(=O)([O-])OCC[N+](C)(C)C [14:0 LPC, reference compound] |  | 80 ± 9 µM |  |

| SMILES | Km (recombinant ATX [1]; [6]) | Km (recombinant ATX [1]; recombinant ATX from R&D) | Km (recombinant ATX [2]) | also measured |
| --- | --- | --- | --- | --- |
| CCCCCCCCCCCCCCCCCC(=O)OC[C@@H](O)COP(=O)([O-])OCC[N+](C)(C)C [18:0 LPC, reference compound] | 82 ± 11 µM | 114 µM | 116 ± 13 µM |  |

From PMC3726599, “A Metabolically-Stabilized Phosphonate Analog of Lysophosphatidic Acid Attenuates Collagen-Induced Arthritis” (PLoS ONE, 2013)
